Reference: patent publication US7348427B2, “Antipathogenic benzamide compounds” (Genesoft Pharmaceuticals, Inc., priority 2001, dated 2008)

Tests used:
[1] = test system: Bacillus cereus (ATCC 11778); assay: MIC, NCCLS broth microdilution assay; type: cell-based; conditions: A = B. cereus ATCC 11778
In short: (§1)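 Activity is measured as MIC in microtiter broth microdilution under NCCLS M7-A4, M11-A4 and M27-T guidance, with the yeast tested by the method in Murray's Manual of Clinical Microbiology.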

[2] = test system: Enterococcus faecium (ATCC 51559, a vancomycin resistant strain (VRE)); assay: MIC, NCCLS broth microdilution assay; type: cell-based; conditions: D = E. faecium ATCC 51559
In short: as §1

[3] = test system: Staphylococcus aureus (ATCC 13709, a methicillin sensitive strain (MSSA)); assay: MIC, NCCLS broth microdilution assay; type: cell-based; conditions: E = S. aureus ATCC 13709
In short: as §1

[4] = test system: Staphylococcus aureus (ATCC 27660, a methicillin resistant strain (MRSA)); assay: MIC, NCCLS broth microdilution assay; type: cell-based; conditions: F = S. aureus ATCC 27660
In short: as §1

[5] = test system: Staphylococcus epidermidis (ATCC 12228); assay: MIC, NCCLS broth microdilution assay; type: cell-based; conditions: G = S. epidermidis ATCC 12228
In short: as §1

[6] = test system: Streptococcus pneumoniae (ATCC 51422, a penicillin resistant strain (PRSP)); assay: MIC, NCCLS broth microdilution assay; type: cell-based; conditions: I = S. pneumoniae ATCC 51422
In short: as §1

[7] = test system: Candida albicans (ATCC 38247); assay: Antifungal MIC assay; type: cell-based; conditions: B = C. albicans ATCC 38247
In short: as §1

[8] = test system: methicillin resistant Staphylococcus aureus ATCC 33591; assay: Murine neutropenic thigh model; type: in vivo; conditions: neutropenic female CF1 mice, 6 hr after treatment
Experimental: A S. aureus ATCC 33591 culture was grown to log phase overnight and diluted in phosphate buffered saline (pH 7.2) to an optical density of about 0.1 at 600 nm, giving an approximate concentration of 10^8 cfu/mL. The suspension was diluted 1:100 in phosphate buffered saline (pH 7.2) for a final concentration of 10^6 cfu/mL.
Outbred female CF1 mice (approx. 20 gram body weight) were rendered neutropenic by treatment with cyclophosphamide (200 mg/kg body weight, intraperitoneal injection) at 2 and 4 days prior to inoculation. Groups of 5 mice were inoculated with 0.05 mL of the bacteria (approx. 10^6 cfu/mL) into the anterior thigh. Each group was treated intravenously two hours post infection with vehicle (phosphate buffered saline) or test compound. The mice were sacrificed at either 6 or 24 hrs after treatment and thighs were collected aseptically. Each thigh was weighed, placed into sterile saline, and homogenized. The tissue homogenates were diluted appropriately for plating on agar plates. Colony counts were recorded (cfu/gram) and compared to control groups.
In vivo efficacy was shown by a decrease in colony count (log cfu/gram of tissue) in the compound-treated animals when compared against the colony count in animals given only the vehicle.

E. faecalis ATCC 29212 = assay: MIC, NCCLS broth microdilution assay; type: cell-based, Enterococcus faecalis; conditions: C = E. faecalis ATCC 29212
In short: (§2)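 MICs were determined by NCCLS broth microdilution following documents M7-A4 and M11-A4 (1997).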

S. pneumoniae ATCC 49619 = assay: MIC, NCCLS broth microdilution assay; type: cell-based, Streptococcus pneumoniae; conditions: H = S. pneumoniae ATCC 49619
In short: as §2

[9] = 25 mg/kg intravenously two hours post infection
[10] = 50 mg/kg intravenously two hours post infection

Row | SMILES | Minimum Inhibitory Concentration (MIC) [1] | Minimum Inhibitory Concentration (MIC) [2] | Minimum Inhibitory Concentration (MIC) [3] | Minimum Inhibitory Concentration (MIC) [4] | Minimum Inhibitory Concentration (MIC) [5] | Minimum Inhibitory Concentration (MIC) [6] | Minimum Inhibitory Concentration (MIC) [7] | Colony Count (log cfu/gram) Compound [8, 9] [log cfu/gram] | Colony Count (log cfu/gram) Compound [8, 10] [log cfu/gram] | Minimum Inhibitory Concentration (MIC) (E. faecalis ATCC 29212) | Minimum Inhibitory Concentration (MIC) (S. pneumoniae ATCC 49619)
1 | Cn1cc(NC(=O)c2cc(NC(=O)c3cc(NC(=O)c4ccc(F)cc4F)c[nH]3)cn2C)cc1C(=O)NCCN1CCCCC1 [Compound A-4] | +++ (+++ = MIC ≦ 4) | +++ (+++ = MIC ≦ 4) | +++ (+++ = MIC ≦ 4) | +++ (+++ = MIC ≦ 4) | +++ (+++ = MIC ≦ 4) | +++ (+++ = MIC ≦ 4) | ++ (++ = 4 < MIC < 12) | 5.75 | 4.99 | + (+ = 12 ≦ MIC ≦ 32) | +++ (+++ = MIC ≦ 4)
2 | Cn1cc(NC(=O)c2cc(NC(=O)c3cc(NC(=O)c4ccc(F)cc4F)c[nH]3)cn2C)cc1C(=O)NCCN1CCC(O)CC1 [Compound A-8] | +++ (+++ = MIC ≦ 4) | +++ (+++ = MIC ≦ 4) | +++ (+++ = MIC ≦ 4) | +++ (+++ = MIC ≦ 4) | +++ (+++ = MIC ≦ 4) | +++ (+++ = MIC ≦ 4) | + (+ = 12 ≦ MIC ≦ 32) | 5.85 | 4.45 | +++ (+++ = MIC ≦ 4) | +++ (+++ = MIC ≦ 4)
3 | Cn1cc(NC(=O)c2cc(NC(=O)c3cc(NC(=O)c4ccc(F)cc4F)c[nH]3)cn2C)cc1C(=O)NCCN1CCCC1 [Compound A-9] | +++ (+++ = MIC ≦ 4) | +++ (+++ = MIC ≦ 4) | +++ (+++ = MIC ≦ 4) | +++ (+++ = MIC ≦ 4) | +++ (+++ = MIC ≦ 4) | +++ (+++ = MIC ≦ 4) | + (+ = 12 ≦ MIC ≦ 32) | 7.11 | 5.11 | +++ (+++ = MIC ≦ 4) | + (+ = 12 ≦ MIC ≦ 32)
4 | Cn1cc(NC(=O)c2cc(NC(=O)c3cc(NC(=O)c4ccc(F)cc4F)cn3C)cn2C)cc1C(=O)NCCN1CCCCC1 [Compound B-6] | +++ (+++ = MIC ≦ 4) | +++ (+++ = MIC ≦ 4) | +++ (+++ = MIC ≦ 4) | +++ (+++ = MIC ≦ 4) | +++ (+++ = MIC ≦ 4) | +++ (+++ = MIC ≦ 4) | >32 µg/mL |  | 6.37 | +++ (+++ = MIC ≦ 4) | +++ (+++ = MIC ≦ 4)
5 | Cn1cc(NC(=O)c2cc(NC(=O)c3cc(NC(=O)c4ccc(Cl)cc4F)cn3C)cn2C)cc1C(=O)NCCN1CCOCC1 [Compound B-47] | +++ (+++ = MIC ≦ 4) | +++ (+++ = MIC ≦ 4) |  | +++ (+++ = MIC ≦ 4) | +++ (+++ = MIC ≦ 4) | +++ (+++ = MIC ≦ 4) | >32 µg/mL |  | 7.53 | +++ (+++ = MIC ≦ 4) | +++ (+++ = MIC ≦ 4)
